Test results as given in US20060122228A1, “Methods and compositions using immunomodulatory compounds for treatment and management of central nervous system injury” (priority 2004, published 2006).
“And” between values parts separate entries of the source, which are not always exact repeats. Equal entries are not always repeated. Where two headings read alike, the source gives them in different places.

Tests used:
TNF-α production [1] = conditions: LPS-stimulated PBMC, cited from earlier work; for IC50: read-out: IC50 for inhibiting production of TNF-α
MM.IS cells = assay: Inhibition of proliferation of MM.IS cells; assay type: cell-based; conditions: read-out: concentration achieving 50% inhibition of proliferation
Hs Sultan cells = assay: Inhibition of proliferation of Hs Sultan cells; assay type: cell-based; conditions: read-out: concentration achieving 50% inhibition of proliferation
TNF-α production [2] = conditions: LPS-stimulated human whole blood, cited from earlier work; for IC50: read-out: IC50 for inhibiting production of TNF-α
[3] = cited from earlier work
IFN-γ production = assay: Augmentation of IFN-γ production following TCR activation of T-cells; assay type: cell-based
TNF-α production [4] = assay: Inhibition of TNF-α production following LPS-stimulation of human PBMC; assay type: cell-based
T-cells = assay: Stimulation of T-cell proliferation following primary induction by T-cell receptor (TCR) activation; assay type: cell-based
IL-6 production = assay: LPS-stimulated production of IL-6 by PBMC; assay type: cell-based
IL-1β production = assay: LPS-stimulated production of IL-1β by PBMC; assay type: cell-based
IL-10 production = assay: LPS-stimulated production of IL-10 by PBMC; assay type: cell-based
IL-2 production = assay: Augmentation of IL-2 production following TCR activation of PBMC; assay type: cell-based

Nc1cccc2c1C(=O)N(C1CCC(=O)NC1=O)C2=O (stereo not shown) [4-(amino)-2-(2,6-dioxo(3-piperidyl))-isoindoline-1,3-dione]
IC50 for inhibiting production of TNF-α (TNF-α production [1]): ~0.00655 µg/mL | IC50 (TNF-α production [1]): ~24 nM | IC50 (MM.IS cells): 0.00273 µg/mL to 0.0273 µg/mL and 10 nM to 100 nM | IC50 (Hs Sultan cells): 0.00273 µg/mL to 0.0273 µg/mL and 10 nM to 100 nM | IC50 for inhibiting production of TNF-α (TNF-α production [2]): ~0.00683 µg/mL | IC50 (TNF-α production [2]): ~25 nM

Nc1cccc2c1CN(C1CCC(=O)NC1=O)C2=O (stereo not shown) [Form E, 3-(4-amino-1-oxo-1,3 dihydro-isoindol-2-yl)-piperidene-2,6-dione]
stability / interconversion in aqueous solvent systems [3]: most stable form

Nc1cccc2c1CN(C1CCC(=O)NC1=O)C2=O (stereo not shown) [Form B, 3-(4-amino-1-oxo-1,3 dihydro-isoindol-2-yl)-piperidene-2,6-dione]
stability / interconversion in aqueous solvent systems [3]: converts to Form E

Nc1cccc2c1CN(C1CCC(=O)NC1=O)C2=O (stereo not shown) [Form A, 3-(4-amino-1-oxo-1,3 dihydro-isoindol-2-yl)-piperidene-2,6-dione]
thermodynamic stability among polymorphs ([3]; anhydrous polymorphs): most thermodynamically stable anhydrous polymorph

O=C1CCC(N2C(=O)c3ccccc3C2=O)C(=O)N1 (stereo not shown) [Thalidomide, thalidomide, reference compound]
IC50 for inhibiting production of TNF-α (TNF-α production [1]): ~50.2 µg/mL | IC50 (TNF-α production [1]): ~194000 nM

Nc1cccc2c1CN(C1CCC(=O)NC1=O)C2=O (stereo not shown) [3-(4-amino-1-oxo-1,3-dihydro-isoindol-2-yl)-piperidine-2,6-dione]
potency relative to thalidomide in augmenting the production of IFN-γ (IFN-γ production): 50-100 times | effect on LPS-stimulated production of TNF-α (TNF-α production [4]): dose-dependent inhibition | potency relative to thalidomide in stimulating the proliferation of T-cells (T-cells): 50-100 times | IC50 for inhibiting production of TNF-α (TNF-α production [1]): ~0.0259 µg/mL | IC50 (TNF-α production [1]): ~100 nM | effect on LPS-stimulated production of IL-6 (IL-6 production): dose-dependent inhibition | effect on LPS-stimulated production of IL-1β (IL-1β production): dose-dependent inhibition | IC50 for inhibiting production of TNF-α (TNF-α production [2]): ~0.1036 µg/mL | IC50 (TNF-α production [2]): ~480 nM | effect on production of the anti-inflammatory cytokine IL-10 (IL-10 production): increased production | potency relative to thalidomide in augmenting the production of IL-2 (IL-2 production): 50-100 times
